Laboratory results as given in ChEMBL document CHEMBL4507291 (2021).

What was measured:
[1] = biological target: Cyclin-dependent kinase 9 (Homo sapiens) (UniProt P50750)
[2] = biological target: Ephrin type-B receptor 6 (Homo sapiens) (UniProt O15197)
[3] = biological target: Serine/threonine-protein kinase WNK2 (Homo sapiens) (UniProt Q9Y3S1)
[4] = biological target: Dual specificity mitogen-activated protein kinase kinase 1 (Homo sapiens) (UniProt Q02750)
[5] = biological target: Mitogen-activated protein kinase kinase kinase 19 (Homo sapiens) (UniProt Q56UN5)
Sequence of Mitogen-activated protein kinase kinase kinase 19 (Homo sapiens) (Q56UN5 whole entry): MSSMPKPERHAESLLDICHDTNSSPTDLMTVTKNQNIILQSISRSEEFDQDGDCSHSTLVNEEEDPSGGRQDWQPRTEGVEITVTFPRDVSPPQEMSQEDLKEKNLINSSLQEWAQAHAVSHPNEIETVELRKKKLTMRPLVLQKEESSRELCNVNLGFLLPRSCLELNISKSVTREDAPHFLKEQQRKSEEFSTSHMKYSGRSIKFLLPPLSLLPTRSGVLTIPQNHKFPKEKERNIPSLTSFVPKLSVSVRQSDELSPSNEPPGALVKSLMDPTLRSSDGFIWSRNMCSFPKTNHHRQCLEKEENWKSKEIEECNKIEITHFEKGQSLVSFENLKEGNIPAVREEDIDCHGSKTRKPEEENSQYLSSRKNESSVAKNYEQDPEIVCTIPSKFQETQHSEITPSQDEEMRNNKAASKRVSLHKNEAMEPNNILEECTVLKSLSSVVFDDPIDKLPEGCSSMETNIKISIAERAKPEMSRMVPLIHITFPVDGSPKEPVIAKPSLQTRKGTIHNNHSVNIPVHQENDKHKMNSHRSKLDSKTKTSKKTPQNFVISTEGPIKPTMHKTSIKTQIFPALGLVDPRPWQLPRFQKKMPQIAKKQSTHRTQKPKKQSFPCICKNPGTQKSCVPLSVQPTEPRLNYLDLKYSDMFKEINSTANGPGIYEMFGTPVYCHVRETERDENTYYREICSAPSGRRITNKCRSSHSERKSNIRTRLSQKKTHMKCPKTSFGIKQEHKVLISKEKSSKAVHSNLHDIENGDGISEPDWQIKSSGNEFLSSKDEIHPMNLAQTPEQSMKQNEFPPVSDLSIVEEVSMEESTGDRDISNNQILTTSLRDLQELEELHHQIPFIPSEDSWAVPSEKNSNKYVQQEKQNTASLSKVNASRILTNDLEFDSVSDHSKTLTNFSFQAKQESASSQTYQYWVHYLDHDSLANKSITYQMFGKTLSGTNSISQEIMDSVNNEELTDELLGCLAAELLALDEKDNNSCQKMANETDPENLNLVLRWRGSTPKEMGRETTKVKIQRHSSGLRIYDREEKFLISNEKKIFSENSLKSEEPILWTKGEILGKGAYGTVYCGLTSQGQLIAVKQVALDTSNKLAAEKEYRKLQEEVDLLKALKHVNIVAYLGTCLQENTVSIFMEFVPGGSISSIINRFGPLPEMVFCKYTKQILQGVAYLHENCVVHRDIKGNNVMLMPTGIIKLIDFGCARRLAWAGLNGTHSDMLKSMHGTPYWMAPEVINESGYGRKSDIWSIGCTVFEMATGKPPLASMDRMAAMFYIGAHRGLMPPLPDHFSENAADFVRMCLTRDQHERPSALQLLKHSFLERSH

[6] = biological target: 5'-AMP-activated protein kinase catalytic subunit alpha-1 (Homo sapiens) (UniProt Q13131)
[7] = biological target: T1, Serine/threonine-protein kinase TAO3 (Homo sapiens) (UniProt Q9H2K8)
T1 sequence (whole entry): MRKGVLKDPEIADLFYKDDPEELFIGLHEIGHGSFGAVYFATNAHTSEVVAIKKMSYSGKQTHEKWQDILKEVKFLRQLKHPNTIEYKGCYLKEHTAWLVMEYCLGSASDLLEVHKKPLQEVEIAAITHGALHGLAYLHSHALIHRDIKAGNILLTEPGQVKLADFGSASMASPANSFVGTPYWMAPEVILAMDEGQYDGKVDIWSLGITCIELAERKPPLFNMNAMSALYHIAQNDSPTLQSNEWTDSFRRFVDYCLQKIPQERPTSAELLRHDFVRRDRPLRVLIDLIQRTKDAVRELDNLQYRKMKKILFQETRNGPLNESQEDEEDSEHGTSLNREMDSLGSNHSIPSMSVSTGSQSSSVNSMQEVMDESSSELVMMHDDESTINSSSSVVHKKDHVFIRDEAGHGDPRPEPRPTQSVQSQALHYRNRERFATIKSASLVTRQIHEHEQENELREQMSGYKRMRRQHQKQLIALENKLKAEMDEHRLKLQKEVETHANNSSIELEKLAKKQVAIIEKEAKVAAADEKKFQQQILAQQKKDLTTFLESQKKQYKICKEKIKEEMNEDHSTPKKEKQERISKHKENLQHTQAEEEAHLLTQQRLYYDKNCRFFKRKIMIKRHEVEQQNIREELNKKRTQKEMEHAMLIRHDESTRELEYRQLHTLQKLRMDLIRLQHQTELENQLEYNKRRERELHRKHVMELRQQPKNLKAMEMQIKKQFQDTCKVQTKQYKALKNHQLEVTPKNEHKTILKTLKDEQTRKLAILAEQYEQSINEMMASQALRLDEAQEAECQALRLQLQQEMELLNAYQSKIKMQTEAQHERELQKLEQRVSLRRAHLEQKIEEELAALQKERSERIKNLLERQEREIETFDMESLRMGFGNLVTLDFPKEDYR

[8] = system: Tyrosine-protein kinase ABL1 (Homo sapiens), P00519 [F317L]
[9] = biological target: Mitogen-activated protein kinase kinase kinase 20 (Homo sapiens) (UniProt Q9NYL2)
Sequence of Mitogen-activated protein kinase kinase kinase 20 (Homo sapiens) (Q9NYL2 2-800 limits assumed): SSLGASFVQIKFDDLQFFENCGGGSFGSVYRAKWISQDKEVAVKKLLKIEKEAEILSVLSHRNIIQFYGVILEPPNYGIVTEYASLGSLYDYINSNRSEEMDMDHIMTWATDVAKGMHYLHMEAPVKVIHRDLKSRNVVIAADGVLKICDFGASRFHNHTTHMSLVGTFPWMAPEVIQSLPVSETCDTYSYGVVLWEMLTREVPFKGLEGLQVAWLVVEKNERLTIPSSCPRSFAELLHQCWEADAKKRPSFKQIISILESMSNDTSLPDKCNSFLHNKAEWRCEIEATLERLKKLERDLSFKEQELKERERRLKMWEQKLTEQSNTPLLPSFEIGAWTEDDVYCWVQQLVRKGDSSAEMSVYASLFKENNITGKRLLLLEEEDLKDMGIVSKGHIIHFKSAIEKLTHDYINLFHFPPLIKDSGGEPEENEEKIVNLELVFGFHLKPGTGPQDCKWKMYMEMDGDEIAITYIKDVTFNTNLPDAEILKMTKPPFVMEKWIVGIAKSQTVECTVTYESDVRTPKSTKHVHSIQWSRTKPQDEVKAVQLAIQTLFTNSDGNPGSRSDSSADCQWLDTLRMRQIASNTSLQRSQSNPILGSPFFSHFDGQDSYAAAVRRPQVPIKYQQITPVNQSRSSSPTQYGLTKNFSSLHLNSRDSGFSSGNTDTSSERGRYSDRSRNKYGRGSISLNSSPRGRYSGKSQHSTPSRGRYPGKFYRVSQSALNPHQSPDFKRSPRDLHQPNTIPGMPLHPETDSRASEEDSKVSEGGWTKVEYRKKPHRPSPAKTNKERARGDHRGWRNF

[10] = biological target: 5-hydroxytryptamine receptor 5A (Homo sapiens) (UniProt P47898); conditions: Compound concentration 10.0 uM
[11] = biological target: Serine/threonine-protein kinase pim-1 (Homo sapiens) (UniProt P11309)
[12] = biological target: Mitogen-activated protein kinase 15 (Homo sapiens) (UniProt Q8TD08)
[13] = biological target: Ribosomal protein S6 kinase alpha-3 (Homo sapiens) (UniProt P51812)
Sequence of Ribosomal protein S6 kinase alpha-3 (Homo sapiens) (P51812 whole entry): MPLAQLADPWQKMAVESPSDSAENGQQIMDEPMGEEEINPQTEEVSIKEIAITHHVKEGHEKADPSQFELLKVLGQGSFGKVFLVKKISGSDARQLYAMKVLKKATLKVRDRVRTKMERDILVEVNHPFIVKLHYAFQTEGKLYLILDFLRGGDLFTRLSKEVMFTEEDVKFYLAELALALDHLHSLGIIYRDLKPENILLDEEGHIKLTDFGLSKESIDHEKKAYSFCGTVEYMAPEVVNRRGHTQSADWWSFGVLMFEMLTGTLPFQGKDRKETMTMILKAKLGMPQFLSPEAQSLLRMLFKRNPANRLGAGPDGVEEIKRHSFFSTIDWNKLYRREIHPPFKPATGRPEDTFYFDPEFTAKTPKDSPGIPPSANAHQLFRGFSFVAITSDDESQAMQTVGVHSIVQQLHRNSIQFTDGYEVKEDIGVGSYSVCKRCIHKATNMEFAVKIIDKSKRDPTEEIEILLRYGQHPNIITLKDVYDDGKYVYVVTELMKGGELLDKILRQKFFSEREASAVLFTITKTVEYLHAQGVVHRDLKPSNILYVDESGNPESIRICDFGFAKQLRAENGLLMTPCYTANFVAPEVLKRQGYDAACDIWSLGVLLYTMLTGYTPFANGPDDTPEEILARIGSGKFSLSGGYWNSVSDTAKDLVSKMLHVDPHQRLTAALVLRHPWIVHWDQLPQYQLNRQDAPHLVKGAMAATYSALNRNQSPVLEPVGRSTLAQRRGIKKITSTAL

[14] = biological target: MAP kinase-activated protein kinase 2 (Homo sapiens) (UniProt P49137)
Sequence of MAP kinase-activated protein kinase 2 (Homo sapiens) (P49137 whole entry, looked up): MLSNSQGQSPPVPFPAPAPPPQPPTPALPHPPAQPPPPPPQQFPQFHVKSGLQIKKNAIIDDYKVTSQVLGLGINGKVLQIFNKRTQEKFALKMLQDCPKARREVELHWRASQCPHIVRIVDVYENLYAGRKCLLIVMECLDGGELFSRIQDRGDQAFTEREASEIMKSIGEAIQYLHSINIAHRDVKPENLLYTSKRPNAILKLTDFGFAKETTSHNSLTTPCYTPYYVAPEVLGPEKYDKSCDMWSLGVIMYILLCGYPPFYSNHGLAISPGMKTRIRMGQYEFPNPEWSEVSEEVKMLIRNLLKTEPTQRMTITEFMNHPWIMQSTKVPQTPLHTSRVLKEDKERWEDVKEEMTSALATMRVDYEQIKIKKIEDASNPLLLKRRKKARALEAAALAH

[15] = biological target: Interleukin-1 receptor-associated kinase 3 (Homo sapiens) (UniProt Q9Y616)
Sequence of Interleukin-1 receptor-associated kinase 3 (Homo sapiens) (Q9Y616 whole entry): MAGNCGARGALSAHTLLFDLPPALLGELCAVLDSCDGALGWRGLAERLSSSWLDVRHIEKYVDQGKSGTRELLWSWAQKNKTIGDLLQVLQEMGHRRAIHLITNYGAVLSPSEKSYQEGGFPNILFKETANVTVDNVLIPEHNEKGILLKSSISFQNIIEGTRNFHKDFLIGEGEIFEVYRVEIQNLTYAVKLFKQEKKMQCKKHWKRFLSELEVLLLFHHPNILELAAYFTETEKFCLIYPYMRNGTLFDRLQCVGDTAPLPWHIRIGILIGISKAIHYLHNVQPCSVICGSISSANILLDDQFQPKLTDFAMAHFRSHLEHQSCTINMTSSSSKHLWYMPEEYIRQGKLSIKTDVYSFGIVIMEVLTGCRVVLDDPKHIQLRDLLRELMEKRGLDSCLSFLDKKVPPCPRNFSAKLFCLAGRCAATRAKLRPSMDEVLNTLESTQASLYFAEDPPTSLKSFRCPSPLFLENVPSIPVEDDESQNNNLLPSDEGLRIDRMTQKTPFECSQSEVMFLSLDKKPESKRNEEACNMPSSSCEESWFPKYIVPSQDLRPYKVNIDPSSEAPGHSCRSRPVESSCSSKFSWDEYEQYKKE

[16] = biological target: Myosin-IIIb (Homo sapiens) (UniProt Q8WXR4)
[17] = biological target: Ribosomal protein S6 kinase alpha-4 (Homo sapiens) (UniProt O75676)
Sequence of Ribosomal protein S6 kinase alpha-4 (Homo sapiens) (O75676 whole entry, looked up, canonical isoform): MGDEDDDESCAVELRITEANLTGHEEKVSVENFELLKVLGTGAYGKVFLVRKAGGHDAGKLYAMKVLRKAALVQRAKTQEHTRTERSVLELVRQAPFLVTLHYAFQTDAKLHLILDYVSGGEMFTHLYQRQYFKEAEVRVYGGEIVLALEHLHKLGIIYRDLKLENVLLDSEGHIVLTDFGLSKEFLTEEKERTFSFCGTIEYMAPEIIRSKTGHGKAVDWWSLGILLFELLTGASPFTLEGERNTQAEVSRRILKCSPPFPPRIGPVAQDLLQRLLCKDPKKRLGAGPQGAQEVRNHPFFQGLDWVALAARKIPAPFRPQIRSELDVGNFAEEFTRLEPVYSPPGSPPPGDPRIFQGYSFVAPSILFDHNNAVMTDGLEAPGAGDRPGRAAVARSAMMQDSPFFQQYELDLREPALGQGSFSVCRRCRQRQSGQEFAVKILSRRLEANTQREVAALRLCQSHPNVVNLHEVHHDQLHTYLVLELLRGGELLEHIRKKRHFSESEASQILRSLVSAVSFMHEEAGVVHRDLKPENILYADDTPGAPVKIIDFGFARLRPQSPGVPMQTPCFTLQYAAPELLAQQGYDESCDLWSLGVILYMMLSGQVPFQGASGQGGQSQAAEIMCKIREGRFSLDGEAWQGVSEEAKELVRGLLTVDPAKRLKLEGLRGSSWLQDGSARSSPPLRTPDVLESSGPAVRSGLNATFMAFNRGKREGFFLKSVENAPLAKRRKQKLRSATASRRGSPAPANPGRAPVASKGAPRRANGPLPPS

[18] = biological target: Casein kinase I isoform delta (Homo sapiens) (UniProt P48730)
[19] = biological target: T2, Tyrosine-protein kinase ZAP-70 (Homo sapiens) (UniProt P43403)
T2 sequence (whole entry): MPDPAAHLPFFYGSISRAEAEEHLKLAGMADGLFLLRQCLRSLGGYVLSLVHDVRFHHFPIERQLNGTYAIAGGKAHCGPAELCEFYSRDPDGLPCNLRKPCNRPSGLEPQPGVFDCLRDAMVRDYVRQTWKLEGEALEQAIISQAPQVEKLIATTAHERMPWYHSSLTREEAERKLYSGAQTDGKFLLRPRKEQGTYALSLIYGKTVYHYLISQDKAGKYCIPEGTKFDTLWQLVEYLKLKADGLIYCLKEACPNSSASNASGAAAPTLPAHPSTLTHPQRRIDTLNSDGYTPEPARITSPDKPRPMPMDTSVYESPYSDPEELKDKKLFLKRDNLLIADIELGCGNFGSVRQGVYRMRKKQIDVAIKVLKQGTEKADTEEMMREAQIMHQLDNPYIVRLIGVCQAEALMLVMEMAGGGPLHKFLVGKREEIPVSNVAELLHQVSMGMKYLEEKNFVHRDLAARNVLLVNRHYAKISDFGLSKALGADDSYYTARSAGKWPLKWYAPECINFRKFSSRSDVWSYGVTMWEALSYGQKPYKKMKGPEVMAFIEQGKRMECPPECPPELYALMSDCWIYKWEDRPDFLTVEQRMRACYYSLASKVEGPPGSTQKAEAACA

[20] = biological target: Serine/threonine-protein kinase ULK3 (Homo sapiens) (UniProt Q6PHR2)
[21] = Compound concentration 1000.0 nM
[22] = Compound concentration 100.0 nM

Sequence of Cyclin-dependent kinase 9 (Homo sapiens) (P50750 whole entry): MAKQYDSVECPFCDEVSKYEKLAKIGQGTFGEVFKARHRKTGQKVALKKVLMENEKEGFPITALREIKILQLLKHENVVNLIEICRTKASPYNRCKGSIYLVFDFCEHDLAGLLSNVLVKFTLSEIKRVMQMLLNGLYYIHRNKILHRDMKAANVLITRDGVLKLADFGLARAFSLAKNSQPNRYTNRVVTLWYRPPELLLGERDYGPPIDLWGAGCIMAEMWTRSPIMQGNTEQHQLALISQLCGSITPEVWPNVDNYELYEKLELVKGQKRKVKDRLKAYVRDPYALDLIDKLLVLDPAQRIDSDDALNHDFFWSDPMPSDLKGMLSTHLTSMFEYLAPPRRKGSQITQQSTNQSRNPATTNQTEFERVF

C[C@@H]1CN(c2cc(-c3nn(C)c4ccc(OC5(C)CC5)cc34)ncn2)C[C@H](C)O1 [MLi-2-NC]
inactive: residual activity [1, 21] 84% | residual activity [2, 21] 100% | residual activity [3, 21] 63% | residual activity [4, 21] 74% | residual activity [5, 21] 68% | residual activity [6, 21] 93% | residual activity [8, 21] 86% | residual activity [9, 21] 100% | inhibition [10] -6.76% | residual activity [11, 21] 77% | residual activity [12, 21] 72% | residual activity [13, 21] 91% | residual activity [14, 21] 93% | residual activity [15, 21] 89% | residual activity [16, 21] 100% | residual activity [17, 21] 100% | residual activity [18, 21] 84% | residual activity [19, 21] 100% | residual activity [20, 21] 67%
active: residual activity [7, 21] 35%

C[C@@H]1CN(c2cc(-c3n[nH]c4ccc(OC5(C)CC5)cc34)ncn2)C[C@H](C)O1 [MLi-2]
inactive: residual activity [1, 22] 80% | residual activity [2, 22] 91% | residual activity [3, 22] 84% | residual activity [4, 22] 88% | residual activity [5, 22] 84% | residual activity [6, 22] 86% | residual activity [7, 22] 69% | residual activity [8, 22] 82% | residual activity [9, 22] 92% | inhibition [10] -4.76% | residual activity [11, 22] 100% | residual activity [12, 22] 81% | residual activity [13, 22] 85% | residual activity [14, 22] 96% | residual activity [15, 22] 94% | residual activity [16, 22] 89% | residual activity [17, 22] 100% | residual activity [18, 22] 80% | residual activity [19, 22] 83% | residual activity [20, 22] 78%
